Structures can show the parent of a compound that is named as a salt.

The assay relates to inflammation induced by tetradecanoyl phorbol acetate (TPA). Description: TPA inflammation inhibition test (mouse ear edema). In kind it is in vivo, mice. Details: dose or concentration left out as unconfirmed. As to conditions: topical, 4 h, TPA to right ear, edema measured four hours later, read-out: % Inhibition of Control Swelling. From the text:
One such model is the inflammation induced by tetradecanoyl phorbol acetate (TPA), modified from the method of Kuehl et al., Nature, 1977, 265, 170; and Van Arman, Clin. Pharmacol. Ther., 1974, 16, 900. The TPA model mimics many of the inflammatory changes which occur in human skin diseases such as psoriasis, since elevated levels of inflammatory arachidonic acid metabolites are found and an influx of polymorphonuclear leukocytes is observed. The test procedure used to evaluate the compounds of Formula (I) is as follows: the test compound […] is applied to both ears of mice in an appropriate vehicle, such as acetone, and then the inflammatory stimulus (TPA) is applied to the right ear. Four hours later, the edema is measured by removing standard size discs from the ears using a biopsy punch. A control group of animals receives TPA in vehicle applied to the right ear, and vehicle alone to the left ear. The weights of the ear discs are determined, and the suppression of swelling observed in animals treated with the test compound is determined.
For the compound `CC1(C)C2CCC(CNCCC(N)c3ccc(F)cc3)C1C2` (single isomer, unassigned) [Example 11, 4-Fluoro-α-(2-[(1α,2α,5α-7,7-dimethylbicyclo[3.1.1]-heptanyl-2-methyl)amino]ethyl)benzenemethanamine Dihydrochloride], the inhibition in vivo came out at 45%.

With `CC(C)c1ccc2c(c1)CCC1C(C)(CNCCC(N)c3ccc(F)cc3)CCCC21C` (stereo not drawn) [Example 1, α-(2-[1,4a-Dimethyl-7-(2-propyl)-1,2,3,4,4a,9,10,10a-octahydro-1-phenanthrenylmethylamino]ethyl)-4-fluorobenzenemethanamine Dihydrochloride], the inhibition in vivo turned out to be 89%.

Take `CCCCCCCCSCCCC(N)c1ccc(F)cc1` (stereo not drawn) [Example 5, 4-Fluoro-α-[3-(octylthio)propyl]benzenemethanamine Hydrochloride]: the inhibition in vivo is 46%.

Regarding `Cc1ccc(SCCCC(N)c2ccc(F)cc2)cc1` (stereo not drawn) [Example 7, 4-Fluoro-α-[3-(4-methylphenylthio)propyl]benzenemethanamine Hydrochloride], the inhibition in vivo was found to be 22%.

As for `CC(C)c1ccc2c(c1)CCC1C(C)(CNCCCC(N)c3ccc(F)cc3)CCCC21C` (stereo not drawn) [Example 8, 4-Fluoro-α-(4-[1,4a-dimethyl-7-(2-propyl)-1,2,3,4,4a,9,10,10a-octahydro-1-phenanthrenylmethylamino]propyl)-benzenemethanamine Dihydrochloride], the inhibition in vivo is 50%.

As for `NC(CCCSc1ccncc1)c1ccc(F)cc1` (stereo not drawn) [Example 10, 4-Fluoro-α-[3-(4-pyridinylthio)propyl]benzenemethanamine Dihydrochloride], the inhibition in vivo was 24%.

`CCCCCCCCNCCC(N)c1ccc(F)cc1` (stereo not drawn) [Example 21, 4-Fluoro-α-[2-(octylamino)ethyl]benzenemethanamine Dihydrochloride]: the inhibition in vivo came to 68%.

Regarding `COc1ccc(CNCCC(N)c2ccc(F)cc2)c2ccccc12` (stereo not drawn) [Example 22, 4-Fluoro-α-(2-[(4-methoxynaphthalenyl)methylamino]ethyl)benzenemethanamine Dihydrochloride], the inhibition in vivo was found to be 26%.

For `CCCCCCCNCCC(N)c1ccc(F)cc1` (stereo not drawn) [Example 26, 4-Fluoro-α-[2-heptylamino)ethyl]benzenemethanamine Dihydrochloride], the inhibition in vivo stood at 52%.

In the case of `CCCCCCCCCCCNCCC(N)c1ccc(F)cc1` (stereo not drawn) [Example 27, 4-Fluoro-α-[2-undecylamino)ethyl]benzenemethanamine Dihydrochloride], the inhibition in vivo amounted to 51%.

Consider `CCCCCCNCCC(N)c1ccc(F)cc1` (stereo not drawn) [Example 28, 4-Fluoro-α-[2-(hexylamino)ethyl]benzenemethanamine Dihydrochloride], for which the inhibition in vivo amounted to 51%.

Consider `CC1(C)C2CCC(CNCCC(N)c3ccc(F)cc3)C1C2` (stereo not drawn) [Example 30, α-[2-(7,7-Dimethylbicyclo[3,1,1]heptyl-2-methylamino)ethyl]-4-fluoro-benzenemethanamine Dihydrochloride], for which the inhibition in vivo stood at 34%.

With `CC(C)(C)CC(C)(C)NCCC(N)c1ccc(F)cc1` (stereo not drawn) [Example 34, 4-Fluoro-α-[2-(1,1,3,3-tetramethylbutyl)aminoethyl]benzenemethanamineDihydrochloride], the inhibition in vivo was 22%.

Regarding `CC(NCCC(N)c1ccc(Cl)cc1)C12CC3CC(CC(C3)C1)C2` (stereo not drawn) [Example 36, 4-Chloro-α-(2-[1-(3-adamantyl)ethylamino]ethyl)benzenemethanamine Dihydrochloride], the inhibition in vivo came out at 48%.

As for `NC(CCCSc1ccccc1)c1ccc(F)cc1` (stereo not drawn) [Example 38, 4-Fluoro-α-(3-phenylthiopropyl)benzenemethanamine Hydrochloride], the inhibition in vivo worked out at 30%.

`CC(NCCC(N)c1ccc(F)cc1)C12CC3CC(CC(C3)C1)C2` (stereo not drawn) [Example 39, 4-Fluoro-α-(2-[1-(3-adamantyl)ethylamino]ethyl)benzenemethanamine Dihydrochloride]: the inhibition in vivo came out at 50%.

Consider `NC(CCNCCc1cccc2ccccc12)c1ccc(F)cc1` (stereo not drawn) [Example 40, 4-Fluoro-α-(2-[2-(1-naphthalenyl)ethylamino]ethyl)benzenemethanamine Dihydrochloride], for which the inhibition in vivo was determined as 29%.

With `CCCCCCCCCCCCCCCCCCNCCC(N)c1ccc(F)cc1` (stereo not drawn) [Example 42, 4-Fluoro-α-[2-(octadecylamino)ethyl]benzenemethanamine Dihydrochloride], the inhibition in vivo was found to be 22%.

`NC(CCCSc1ccc(F)cc1)c1ccc(F)cc1` (stereo not drawn) [Example 44, 4-Fluoro-α-[3-(4-Fluorophenylthio)propyl]benzenemethanamine Hydrochloride]: the inhibition in vivo was 25%.

Take `CC(C)c1ccc2c(c1)CCC1C(C)(CNCCC(N)c3ccccc3)CCCC21C` (stereo not shown) [Example 56, Dihydrochloride]: the inhibition in vivo amounted to 64%.

Take `COc1ccc(C(N)CCNCC2(C)CCCC3(C)c4ccc(C(C)C)cc4CCC23)cc1` (stereo not drawn) [Example 57, α-(2-[1,4a-Dimethyl-7-(2-propyl)-1,2,3,4,4a,9,10,10a-octahydro-1-phenanthrenylmethylamino]ethyl)-4-methoxybenzenemethanamine Dihydrochloride]: the inhibition in vivo is 60%.

For the compound `CCCCCCC(C)OCCCC(N)c1ccc(F)cc1` (stereo not drawn) [Example 61, 4-Fluoro-α-[3-(2-octyloxy)propyl]benzenemethanamine], the inhibition in vivo was 25%.

For the origin of these results see patent publication US5039706A, “Antiinflammatory PLA2 inhibitors” (Du Pont Merck Pharmaceutical Company, priority 1989, dated 1991).
